Measured values published in US10006089B2, “MCL-1 as a therapeutic target in SCFFBW7 deficient neoplasm” (Beth Israel Deaconess Medical Center, Inc., priority 2011, dated 2018).
Entries after “also recorded” stand apart in the source; their conditions may differ. Where a SMILES comes first, the peptide text is derived from it. The star is where a group is joined. Cbz = O=C(OCc1ccccc1)*

Tests used:
Type in all cases: cell-based, human
[1] = system: T-ALL cell lines; test: Cell viability assay (CellTiter-Glo) of T-ALL cell lines; details: for sensitivity of Fbw7-deficient T-ALL cell lines compared with wild-type Fbw7 lines (cell viability): 0.5% FBS-containing medium, FIG. 13g; for sensitivity of Fbw7-deficient T-ALL cell lines (cell viability): 10% FBS-containing medium, FIG. 12a; for resistance of Fbw7-deficient T-ALL cell lines compared with wild-type Fbw7 lines to apoptotic stimuli (cell viability): FIG. 13c-f; for resistance after re-introduction of 3A-Mcl-1: FIG. 14e-f
Protocol: (§1) Cell culture including synchronization and transfection has been described^6,28. Wild type and Fbw7−/− DLD1 cell lines were kind gifts from Dr. Bert Vogelstein. Murine T-ALL cell lines derived from Tall transgenic mice were kind gifts from Dr. Michele A. Kelliher. Human T-ALL cell lines were previously described^2. Loucy and CMLT1 T-ALL cell lines were obtained from Jon Aster. For various assays described below, T-ALL cells were cultured in either 0.5% FBS or 10% FBS-containing medium for sorafenib (Alexis Biochemicals) or ABT-737 (Symansis) treatment. In the case of combined treatment with both sorafenib and ABT-737, T-ALL cells were maintained in 10% FBS-containing medium. Lentiviral shRNA virus packaging, retrovirus packaging, and subsequent infections were performed as described previously^28. For cell viability assays, cells were plated at 10,000 per well in 96-well plates, and incubated with the appropriate medium containing sorafenib, ABT-737 or DMSO for 48 h. Assays were performed with CellTiter-Glo Luminescent Cell Viability Assay kit according to the manufacturer's instructions (Promega). For detection of apoptosis, cells treated with various drugs were stained with propidium iodide (Roche), or co-stained with Annexin V-PE and 7-amino-actinomycin D (Annexin V-PE Apoptosis Detection Kit I, BD Bioscience) according to the manufacturer's instructions. Stained cells were sorted with Dako-Cytomation MoFlos sorter (Dako) at the Dana-Farber Cancer Institute FACS core facility.

[2] = system: T-ALL cell lines; test: 7-AAD/Annexin V double-staining FACS analysis of apoptosis; details: 48 hours; for effect of sorafenib on ABT-737 sensitivity (apoptosis by FACS): sorafenib and/or ABT-737, 10% FBS
Protocol: as §1

[3] = system: Mcl-1; test: Protein degradation analysis of Myc-Mcl-1 in transfected 293T cells; details: 293T cells transfected with Myc-Mcl-1, HA-Fbw7, HA-GSK3, FIG. 9a
Protocol: Cells were transfected with Myc-Mcl-1 along with HA-Fbw7, or Flag-β-TRCP1, and GFP as a negative control, in the presence or absence of HA-GSK3 and/or HA-ERK1. For half-life studies, cycloheximide (20 μg/ml, Sigma) was added to the media 40 h post-transfection. At various time points thereafter, cells were lysed and protein abundances were measured by immunoblot analysis.

[4] = system: Mcl-1; test: Immunoblot analysis of Mcl-1 expression in T-ALL cell lines; details: 0.5% FBS-containing medium, FIG. 13h
Protocol: Cells were lysed in EBC (50 mM Tris pH 8.0, 120 mM NaCl, 0.5% NP-40) buffer supplemented with protease inhibitors (Complete Mini, Roche) and phosphatase inhibitors (phosphatase inhibitor cocktail set I and II, Calbiochem). The protein concentrations of the lysates were measured using the Bio-Rad Bradford protein assay reagent on a Beckman Coulter DU-800 spectrophotometer. The lysates were then resolved by SDS-PAGE and immunoblotted with the indicated antibodies. For immunoprecipitation, 800 μg lysates were incubated with the appropriate antibody (1-2 μg) for 3-4 h at 4° C. followed by one-hour incubation with Protein-A Sepharose beads (GE Healthcare). Immuno-complexes were washed five times with NETN buffer (20 mM Tris, pH 8.0, 100 mM NaCl, 1 mM EDTA and 0.5% NP-40) before being resolved by SDS-PAGE and immunoblotted with the indicated antibodies. Quantification of the immunoblot band intensity was performed with Image J software.

## CN(C)CC[C@H](CSc1ccccc1)Nc1ccc(S(=O)(=O)NC(=O)c2ccc(N3CCN(Cc4ccccc4-c4ccc(Cl)cc4)CC3)cc2)cc1[N+](=O)[O-] [ABT-737]
[1]; 48 hours
  sensitivity of Fbw7-deficient T-ALL cell lines compared with wild-type Fbw7 lines (cell viability): resistant
  sensitivity of Fbw7-deficient T-ALL cell lines (cell viability): resistant
[1]; DND41 cells, 10% FBS, 48 hours, FIG. 14b
  resistance after re-introduction of wild-type or 3A-Mcl-1: increase in resistance
[1]; Fbw7-deficient CMLT1 cells, 10% FBS, 48 hours, FIG. 14a
  ABT-737 sensitivity after re-introduction of wild-type Fbw7: partially restored its sensitivity
[1]; Fbw7-deficient T-ALL cell lines, shMcl-1, 10% FBS, 48 hours, FIG. 12c
  ABT-737 sensitivity after depletion of endogenous Mcl-1: restored ABT-737 sensitivity
[2]; 10% FBS, FIG. 13j, also immunoblots of apoptotic biomarkers FIG. 12b
  ABT-737-induced apoptosis in Fbw7-deficient T-ALL cells: impaired

## CC(C)C[C@@H](C=O)NC(=O)[C@H](CC(C)C)NC(=O)[C@H](CC(C)C)NC(=O)OCc1ccccc1 [MG132] (Cbz-Leu-Leu-Leu-aldehyde)
[3]
  effect on Fbw7/GSK3-mediated Mcl-1 destruction: blocked

## COC(=O)Nc1nc2ccc(C(=O)c3cccs3)cc2[nH]1 [Nocodazole]
[1]
  resistance of Fbw7-deficient T-ALL cell lines compared with wild-type Fbw7 lines to apoptotic stimuli (cell viability): more resistant

## CC(=O)O[C@H]1C(=O)[C@@]2(C)[C@H]([C@H](OC(=O)c3ccccc3)[C@]3(O)C[C@H](OC(=O)[C@H](O)[C@@H](NC(=O)c4ccccc4)c4ccccc4)C(C)=C1C3(C)C)[C@]1(OC(C)=O)CO[C@@H]1C[C@@H]2O [Taxol]
[1]; DND41 cells
  resistance after re-introduction of 3A-Mcl-1: increase in resistance
[1]
  resistance of Fbw7-deficient T-ALL cell lines compared with wild-type Fbw7 lines to apoptotic stimuli (cell viability): more resistant

## CC[C@@]1(O)C(=O)OCc2c1cc1n(c2=O)Cc2cc3ccccc3nc2-1 [camptothecin]
[1]; DND41 cells
  resistance after re-introduction of 3A-Mcl-1: increase in resistance
[1]
  resistance of Fbw7-deficient T-ALL cell lines compared with wild-type Fbw7 lines to apoptotic stimuli (cell viability): more resistant

## COc1cc([C@@H]2c3cc4c(cc3[C@@H](O[C@@H]3O[C@@H]5CO[C@@H](C)O[C@H]5[C@H](O)[C@H]3O)[C@H]3COC(=O)[C@H]23)OCO4)cc(OC)c1O [etoposide]
[1]
  resistance of Fbw7-deficient T-ALL cell lines compared with wild-type Fbw7 lines to apoptotic stimuli (cell viability): more resistant
[1]; Fbw7-deficient HPB-ALL and JRT3-T3.5 cells, FIG. 14d
  sensitivity to induced apoptosis after re-introduction of wild-type Fbw7: partially restored their sensitivity

## CNC(=O)c1cc(Oc2ccc(NC(=O)Nc3ccc(Cl)c(C(F)(F)F)c3)cc2)ccn1 [sorafenib]
[1]; 48 hours
  sensitivity of Fbw7-deficient T-ALL cell lines compared with wild-type Fbw7 lines (cell viability): more sensitive
  sensitivity of Fbw7-deficient T-ALL cell lines (cell viability): more sensitive
[1]; Fbw7-deficient HPB-ALL cells, combined with ABT-737, 10% FBS, 48 hours, FIG. 14g
  effect of sorafenib on ABT-737 sensitivity (cell viability): dose-dependent increase of ABT-737 sensitivity; also recorded: restored ABT-737 sensitivity
[2]; Fbw7-deficient CMLT1 and JRT3-T3.5 cells, FIG. 14h
  effect of sorafenib on ABT-737 sensitivity (apoptosis by FACS): restored ABT-737 sensitivity
[2]; Fbw7-deficient HPB-ALL cells, FIG. 12e
  effect of sorafenib on ABT-737 sensitivity (apoptosis by FACS): significant increase in the induction of apoptosis; also recorded: restores ABT-737 sensitivity
[4]
  effect on Mcl-1 expression: effectively reduce Mcl-1 expression
